Several values for one entry are separate records, joined by “and”; a condition that tells them apart may be missing. Equal values may be shown once.
What follows are molecules tested on glp-4(bn2) worms exposed to methicillin-resistant S. aureus strain MRSA131 (assay: S. aureus infection assay (liquid)). Details: S. aureus, 32 µM.
Type: in vivo, Caenorhabditis elegans
Procedure: Enterococcus faecalis and Staphylococcus aureus are Gram-positive bacterial species frequently responsible for nosocomial infections ([24], [25]). These bacterial species readily infect C. elegans and liquid-based pathogenesis models have been developed for each ([26][–][28]). Sterile, young adult glp-4(bn2) worms were incubated with either E. faecalis or S. aureus and various concentrations of the five compounds. […] Importantly, P. aeruginosa, E. faecalis, and S. aureus use very different mechanisms to kill C. elegans (pyoverdine-mediated mitochondrial damage, gelatinase-mediated damage to the colonized intestine, and multi-toxin-mediated intestinal effacement and damage, respectively) ([29][–][33]). The ability of these compounds to rescue against multiple pathogens that utilize a diverse set of virulence factors and mechanisms of pathogenesis further supports the idea that at least a portion of these compounds’ activity is mediated by stimulating innate immunity.
FIG 2 A subset of LK molecules rescue against E. faecalis and S. aureus. […] Compounds were serially diluted 2-fold, and young adult glp-4(bn2) worms were incubated with the pathogen for 80 h (E. faecalis) or 96 h (S. aureus). The concentrations shown are based on the mean value for at least three replicates. (B and C) Percentages of dead C. elegans after exposure to E. faecalis (B) or S. aureus (C). A representative biological replicate is shown. Each condition included at least six wells per replicate, each well contained approximately 20 worms. Three biological replicates were performed. *, P < 0.05; **, P < 0.01; ***, P < 0.001. P values were calculated using Student’s t test. Error bars represent the standard error of the mean.
The S. aureus killing assay was performed as previously described with some changes ([26]). A single colony was used to inoculate a 5-ml aerobic culture of TSB. The following day, 100 µl of this culture was used to inoculate a second 10 ml of TSB culture wrapped with parafilm. Then, 384-well plates were made containing 10% TSB, and S. aureus from the second culture was resuspended in S Basal medium to a final OD of 0.04. Compounds were then serially diluted in a DMSO-S Basal solution to achieve the desired concentration in the wells with a 1% DMSO final concentration for all compounds. After 5 days, the worms were transferred to new plates using a 0.05% Tween solution to prevent S. aureus biofilm background fluorescence from obscuring dead worms. Subsequent washing, staining, imaging, and image analysis were performed identically to Pseudomonas liquid killing. EC values were defined as the minimum concentration that provided statistically significant rescue. At least three biological replicates were performed.

Row | SMILES | Need of MDT-15 for rescue (mdt-15(RNAi))
1 | O=c1cc(CNc2ccc(Br)cc2)nc2sccn12 [LK56] | required

Same assay, conditions: glp-4(bn2) worms, 96 h; ± 95% confidence interval

Row | SMILES | S. aureus EC
2 | CN(C)/N=N/c1ccc(-c2cn(Cc3ccccc3)cn2)cc1 [LK38] | > 64 µM
3 | CNC(=O)Oc1c(Br)cc2sc(=O)oc2c1Br [LK34] | 42.7 µM and 42.7 ± 11.4 µM
4 | CCN(CC)/N=N/c1ccc(C(=O)O)cc1 [LK35] | > 64 µM
5 | O=c1cc(CNc2ccc(Br)cc2)nc2sccn12 [LK56] | 56 µM and 56 ± 12.8 µM
6 | COC(=O)/C=C/C(=O)Nc1ccccc1 [LK32] | > 64 µM

Each molecule was assayed on glp-4(bn2) worms (assay: Longevity (life span) assay). Details: 50 μM in NGM, E. coli OP50, Fig 3A.
Procedure: To test the long-term toxicity of the hit compounds, life span assays were carried out by placing sterile, young adult glp-4(bn2) worms on NGM (standard nematode growth media, defined in Materials and Methods) seeded with Escherichia coli OP50. […] Sterile worms were used to eliminate the need to transfer worms between plates during life span assays, and we elected to use glp-4(bn2) to induce sterility instead of using wild-type worms sterilized with 5-fluoro-2′-deoxyuridine (FUDR) because the interaction of the compounds could generate artifacts during the long course of life span experiments.
Worms were scored daily by prodding. […] The viability was normalized to a DMSO solvent control. […] Error bars represent standard error of the mean.
Worms were picked onto agar plates seeded with 50 µl of concentrated E. coli OP50. Compounds were added to liquid agar before pouring plates. Worms were scored every day for death by prodding with a platinum wire. Worms that escaped the plate or died on the wall of the plate were censored. Each compound was tested in at least three biological replicates, each including 50 to 70 worms.

Row | SMILES | TD50 (time to 50% death), life span
7 | CN(C)/N=N/c1ccc(-c2cn(Cc3ccccc3)cn2)cc1 [LK38] | 7.6 days
8 | CNC(=O)Oc1c(Br)cc2sc(=O)oc2c1Br [LK34] | 10.1 days
9 | CCN(CC)/N=N/c1ccc(C(=O)O)cc1 [LK35] | 7.7 days
10 | O=c1cc(CNc2ccc(Br)cc2)nc2sccn12 [LK56] | 7.8 days
11 | COC(=O)/C=C/C(=O)Nc1ccccc1 [LK32] | 8.8 days

Each molecule was assayed on SKN-1/Nrf pathway (assay: gst-4p::GFP reporter). Details: 100 μM in 1% DMSO, no pathogen.
Type: in vivo, Caenorhabditis elegans
Excerpt: To test activation of these pathways, worms carrying GFP-based reporters for the SKN-1/Nrf, PMK-1/p38 MAPK, and DAF-16/FOXO pathways (gst-4p::GFP, irg-5p::GFP, and DAF-16::GFP, respectively) were exposed to each compound in S Basal medium in the absence of the pathogen.
FIG 4 A subset of LK molecules activates reporters for the SKN-1/Nrf2 or PMK-1/p38 MAPK pathways. […] Also present are DMSO and ethanol negative controls for LK compounds and juglone, respectively. The fluorescence intensity was normalized to that of DMSO. (B) Worms carrying an irg-5p::GFP reporter for PMK-1/p38 MAPK activity were incubated at 25, 50, or 100 μM in 1% DMSO. Positive and negative controls consisted of 100 μM RPW-24 in 1% DMSO and 1% DMSO alone. Fluorescence was measured at 24 h. For both panels, ∼50 worms were used per well, and at least three wells were used per condition for each biological replicate. Mean values from at least three biological replicates are shown. *, P < 0.05; **, P < 0.01; ***, P < 0.001 compared to the solvent control. P values were calculated using Student’s t test. Error bars represent the standard error of the mean.
Worms were washed three times prior to incubation with compounds or DMSO control and diluted in S Basal medium supplemented with E. coli OP50 (OD600 = 0.08) as a food source. The fluorescence fold increase for gst-4p::GPF was taken as the fluorescence of each well and was normalized to the well’s fluorescence at 0 h. irg-5p::GFP, hsp-16.1p::GFP, rpt-6p::GFP, and hsp-4::GFP fluorescence was quantified as the fluorescence/worm area. For gst-4p::GFP, 100 µM ethanol-solubilized juglone was used as a positive control. Ethanol was also tested at 1% (vol/vol) as a control. For irg-5p::GFP, RPW-24 (100 µM) was used as a positive control. For quantification of nuclear localization of GFP fusion reporters, worms were scored as either localization positive or localization negative. DAF-16::GFP worms were scored as localization positive if >5 nuclei within the worm had localized GFP. All worms were imaged at the L4-young adult stage. […]

Row | SMILES | gst-4p::GFP induction (SKN-1/Nrf activation)
12 | CNC(=O)Oc1c(Br)cc2sc(=O)oc2c1Br [LK34] | induced gst-4p::GFP
13 | O=c1cc(CNc2ccc(Br)cc2)nc2sccn12 [LK56] | not activated
14 | COC(=O)/C=C/C(=O)Nc1ccccc1 [LK32] | induced gst-4p::GFP

What follows are molecules tested on P. aeruginosa strain PA14 (assay: MIC assay (bacterial growth, no worms)). Details: Pseudomonas aeruginosa, PA14.
Type: cell-based, Pseudomonas aeruginosa
Procedure: For the first round of characterization, 69 novel small molecules previously selected on the basis of their ability to improve C. elegans survival during exposure to P. aeruginosa in liquid ([14]) were tested for the ability to interfere with bacterial growth. MICs were determined for each compound by growing P. aeruginosa strain PA14 in static culture in 384-well plates with serial 2-fold dilutions of compounds. No worms were used in these assays. Next, effective rescue concentrations (EC; defined as the minimum concentration that results in statistically significant survival, compared to dimethyl sulfoxide [DMSO]) ([15], [18]) were determined for each compound using the standard P. aeruginosa liquid killing assay. Sterile glp-4(bn2) worms were used in all liquid-based assays to limit artifacts (i.e., unlaid eggs will hatch and cause matricide).
Plates were allowed to grow for 24 h at 37°C without shaking. Growth was scored visually on the basis of turbidity. At least three biological replicates were performed.

Row | SMILES | MIC
15 | CNC(=O)Oc1c(Br)cc2sc(=O)oc2c1Br [LK34] | > 522 µM

Same assay, conditions: Pseudomonas aeruginosa; P. aeruginosa PA14, LB media, static culture, no worms; read-out: MIC

Row | SMILES | MIC
16 | CN(C)/N=N/c1ccc(-c2cn(Cc3ccccc3)cn2)cc1 [LK38] | > 655 µM
17 | CCN(CC)/N=N/c1ccc(C(=O)O)cc1 [LK35] | > 908 µM
18 | O=c1cc(CNc2ccc(Br)cc2)nc2sccn12 [LK56] | > 595 µM
19 | COC(=O)/C=C/C(=O)Nc1ccccc1 [LK32] | > 975 µM

Same assay, conditions: ratio of MIC to EC, P. aeruginosa PA14

Row | SMILES | MIC / EC
20 | CN(C)/N=N/c1ccc(-c2cn(Cc3ccccc3)cn2)cc1 [LK38] | > 97.8
21 | CNC(=O)Oc1c(Br)cc2sc(=O)oc2c1Br [LK34] | > 56.1
22 | CCN(CC)/N=N/c1ccc(C(=O)O)cc1 [LK35] | > 52.4
23 | O=c1cc(CNc2ccc(Br)cc2)nc2sccn12 [LK56] | > 81.5
24 | COC(=O)/C=C/C(=O)Nc1ccccc1 [LK32] | > 30.5
